Assay results: publication PMC9603373 (Microbiology Spectrum, 2022)

Test: Single-dose pharmacokinetics in healthy rats
Conditions: for auc / cmax: rounded mean of the PK study, repeated per rat; for AUC0–24: healthy male Wistar rats, UHPLC-ESI-MS/MS, mean (SD), n = 3, SD; for AUC0–24 / conc: plasma
Procedure: The experiments were performed in triplicate. […] Plasma was collected via centrifugation, and the samples were stored at −80°C until analysis.
All of the UHPLC-ESI-MS/MS analyses were performed using an Agilent 1290 UHPLC system coupled with an Agilent 6460 triple quadrupole mass spectrometer (Agilent Technologies, Santa Clara, CA, USA).

## CCCCCCCCCC(=O)N[C@@H](Cc1c[nH]c2ccccc12)C(=O)N[C@H](CC(N)=O)C(=O)N[C@@H](CC(=O)O)C(=O)N[C@@H]1C(=O)NCC(=O)N[C@@H](CCCN)C(=O)N[C@@H](CC(=O)O)C(=O)N[C@H](C)C(=O)N[C@@H](CC(=O)O)C(=O)NCC(=O)N[C@H](CO)C(=O)N[C@@H]([C@H](C)CC(=O)O)C(=O)N[C@@H](CC(=O)c2ccccc2N)C(=O)O[C@@H]1C [daptomycin, Daptomycin]
12 mg/kg iv
  auc: 228
  cmax: 106
45 mg/kg sc
  auc: 987
  cmax: 123
90 mg/kg sc
  auc: 2054
  cmax: 179
Single dose 12 mg/kg i.v.
  AUC0–24: 228.2 (15.7) mg × h/L
Single dose 45 mg/kg s.c.
  AUC0–24: 986.7 (185.6) mg × h/L
Single dose 90 mg/kg s.c.
  AUC0–24: 2,053.6 (352.3) mg × h/L
Single dose 12 mg/kg i.v., time 0 h, rat id 1
  conc: 71
Single dose 12 mg/kg i.v., time 0 h, rat id 2
  conc: 76
Single dose 12 mg/kg i.v., time 0 h, rat id 3
  conc: 171
Single dose 12 mg/kg i.v., time 0.5 h, rat id 1
  conc: 45
Single dose 12 mg/kg i.v., time 0.5 h, rat id 2
  conc: 4
Single dose 12 mg/kg i.v., time 0.5 h, rat id 3
  conc: 19
Single dose 12 mg/kg i.v., time 1 h, rat id 1
  conc: 70
Single dose 12 mg/kg i.v., time 1 h, rat id 2
  conc: 77
Single dose 12 mg/kg i.v., time 1 h, rat id 3
  conc: 81
Single dose 12 mg/kg i.v., time 2 h, rat id 1
  conc: 47
Single dose 12 mg/kg i.v., time 2 h, rat id 2
  conc: 41
Single dose 12 mg/kg i.v., time 2 h, rat id 3
  conc: 50
Single dose 12 mg/kg i.v., time 3 h, rat id 1
  conc: 31
Single dose 12 mg/kg i.v., time 3 h, rat id 2
  conc: 25
Single dose 12 mg/kg i.v., time 3 h, rat id 3
  conc: 27
Single dose 12 mg/kg i.v., time 4 h, rat id 1
  conc: 21
Single dose 12 mg/kg i.v., time 4 h, rat id 2
  conc: 21
Single dose 12 mg/kg i.v., time 4 h, rat id 3
  conc: 21
Single dose 12 mg/kg i.v., time 5 h, rat id 1
  conc: 10
Single dose 12 mg/kg i.v., time 5 h, rat id 2
  conc: 22
Single dose 12 mg/kg i.v., time 5 h, rat id 3
  conc: 12
Single dose 12 mg/kg i.v., time 8 h, rat id 1
  conc: 7
Single dose 12 mg/kg i.v., time 8 h, rat id 2
  conc: 3.76
Single dose 12 mg/kg i.v., time 8 h, rat id 3
  conc: 2.45
Single dose 12 mg/kg i.v., time 12 h, rat id 1
  conc: 1.45
Single dose 12 mg/kg i.v., time 12 h, rat id 2
  conc: 0
Single dose 12 mg/kg i.v., time 12 h, rat id 3
  conc: 1.2
Single dose 12 mg/kg i.v., time 24 h, rat id 1
  conc: 0
Single dose 12 mg/kg i.v., time 24 h, rat id 2
  conc: 0
Single dose 12 mg/kg i.v., time 24 h, rat id 3
  conc: 0
Single dose 45 mg/kg s.c., time 0 h, rat id 1
  conc: 4
Single dose 45 mg/kg s.c., time 0 h, rat id 2
  conc: 3.71
Single dose 45 mg/kg s.c., time 0 h, rat id 3
  conc: 2
Single dose 45 mg/kg s.c., time 0.5 h, rat id 1
  conc: 16
Single dose 45 mg/kg s.c., time 0.5 h, rat id 2
  conc: 19
Single dose 45 mg/kg s.c., time 0.5 h, rat id 3
  conc: 26
Single dose 45 mg/kg s.c., time 1 h, rat id 1
  conc: 55
Single dose 45 mg/kg s.c., time 1 h, rat id 2
  conc: 40
Single dose 45 mg/kg s.c., time 1 h, rat id 3
  conc: 44
Single dose 45 mg/kg s.c., time 2 h, rat id 1
  conc: 98
Single dose 45 mg/kg s.c., time 2 h, rat id 2
  conc: 64
Single dose 45 mg/kg s.c., time 2 h, rat id 3
  conc: 72
Single dose 45 mg/kg s.c., time 3 h, rat id 1
  conc: 82
Single dose 45 mg/kg s.c., time 3 h, rat id 2
  conc: 109
Single dose 45 mg/kg s.c., time 3 h, rat id 3
  conc: 142
Single dose 45 mg/kg s.c., time 4 h, rat id 1
  conc: 117
Single dose 45 mg/kg s.c., time 4 h, rat id 2
  conc: 89
Single dose 45 mg/kg s.c., time 4 h, rat id 3
  conc: 106
Single dose 45 mg/kg s.c., time 5 h, rat id 1
  conc: 93
Single dose 45 mg/kg s.c., time 5 h, rat id 2
  conc: 95
Single dose 45 mg/kg s.c., time 5 h, rat id 3
  conc: 84
Single dose 45 mg/kg s.c., time 8 h, rat id 1
  conc: 63
Single dose 45 mg/kg s.c., time 8 h, rat id 2
  conc: 68
Single dose 45 mg/kg s.c., time 8 h, rat id 3
  conc: 88
Single dose 45 mg/kg s.c., time 12 h, rat id 1
  conc: 52
Single dose 45 mg/kg s.c., time 12 h, rat id 2
  conc: 37
Single dose 45 mg/kg s.c., time 12 h, rat id 3
  conc: 29
Single dose 45 mg/kg s.c., time 24 h, rat id 1
  conc: 0.82
Single dose 45 mg/kg s.c., time 24 h, rat id 2
  conc: 0
Single dose 45 mg/kg s.c., time 24 h, rat id 3
  conc: 0.52
Single dose 90 mg/kg s.c., time 0 h, rat id 1
  conc: 5
Single dose 90 mg/kg s.c., time 0 h, rat id 2
  conc: 7
Single dose 90 mg/kg s.c., time 0 h, rat id 3
  conc: 4
Single dose 90 mg/kg s.c., time 0.5 h, rat id 1
  conc: 53
Single dose 90 mg/kg s.c., time 0.5 h, rat id 2
  conc: 42
Single dose 90 mg/kg s.c., time 0.5 h, rat id 3
  conc: 51
Single dose 90 mg/kg s.c., time 1 h, rat id 1
  conc: 58
Single dose 90 mg/kg s.c., time 1 h, rat id 2
  conc: 80
Single dose 90 mg/kg s.c., time 1 h, rat id 3
  conc: 57
Single dose 90 mg/kg s.c., time 2 h, rat id 1
  conc: 116
Single dose 90 mg/kg s.c., time 2 h, rat id 2
  conc: 143
Single dose 90 mg/kg s.c., time 2 h, rat id 3
  conc: 129
Single dose 90 mg/kg s.c., time 3 h, rat id 1
  conc: 125
Single dose 90 mg/kg s.c., time 3 h, rat id 2
  conc: 175
Single dose 90 mg/kg s.c., time 3 h, rat id 3
  conc: 200
Single dose 90 mg/kg s.c., time 4 h, rat id 1
  conc: 161
Single dose 90 mg/kg s.c., time 4 h, rat id 2
  conc: 148
Single dose 90 mg/kg s.c., time 4 h, rat id 3
  conc: 143
Single dose 90 mg/kg s.c., time 5 h, rat id 1
  conc: 158
Single dose 90 mg/kg s.c., time 5 h, rat id 2
  conc: 168
Single dose 90 mg/kg s.c., time 5 h, rat id 3
  conc: 179
Single dose 90 mg/kg s.c., time 8 h, rat id 1
  conc: 128
Single dose 90 mg/kg s.c., time 8 h, rat id 2
  conc: 151
Single dose 90 mg/kg s.c., time 8 h, rat id 3
  conc: 170
Single dose 90 mg/kg s.c., time 12 h, rat id 1
  conc: 78
Single dose 90 mg/kg s.c., time 12 h, rat id 2
  conc: 116
Single dose 90 mg/kg s.c., time 12 h, rat id 3
  conc: 84
Single dose 90 mg/kg s.c., time 24 h, rat id 1
  conc: 2
Single dose 90 mg/kg s.c., time 24 h, rat id 2
  conc: 6.44
Single dose 90 mg/kg s.c., time 24 h, rat id 3
  conc: 3.35
